Source: patent US20060241172A1, “Benzodioxane and benzodioxolane derivatives and uses thereof” (Wyeth, priority 2005, published 2006)
Where two headings read alike, the source gives them in different places.

Tests used:
[1] = molecular target: T1, human 5-HT2C receptor (Homo sapiens, UniProt P28335); test: 5-HT2C receptor-stimulated calcium mobilization (FLIPR) in CHO cells; assay type: cell-based; conditions: for Emax: CHO, read-out: 5-HT2C Function EMax (%); for EC50: read-out: 5-HT2C Function EC50
T1 sequence (P28335 33-458): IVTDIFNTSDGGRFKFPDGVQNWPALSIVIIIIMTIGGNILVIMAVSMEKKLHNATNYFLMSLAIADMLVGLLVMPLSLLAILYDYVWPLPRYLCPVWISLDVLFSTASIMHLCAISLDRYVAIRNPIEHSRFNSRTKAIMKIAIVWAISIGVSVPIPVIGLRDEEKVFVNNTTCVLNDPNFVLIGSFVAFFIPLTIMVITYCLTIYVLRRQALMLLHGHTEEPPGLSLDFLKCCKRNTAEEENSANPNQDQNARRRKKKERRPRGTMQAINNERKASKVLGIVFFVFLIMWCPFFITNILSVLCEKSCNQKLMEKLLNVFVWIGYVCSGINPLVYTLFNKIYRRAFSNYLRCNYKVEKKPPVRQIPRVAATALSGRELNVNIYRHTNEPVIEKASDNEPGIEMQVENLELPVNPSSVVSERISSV

[2] = molecular target: T2, human 5-hydroxytryptamine-2C (h5-HT2C) receptor (Homo sapiens, UniProt P28335); test: 5-HT2C binding: [125I]DOI displacement in membranes of transfected CHO cells
T2 construct: expressed in transfected cells; host or cells: CHO (Chinese Hamster Ovary) cells; membranes
T2 sequence (P28335 33-458): T1 sequence (P28335 33-458)

[3] = read-out: 5-HT2C Binding Ki avg

## NCC1COc2cccc(-c3ccccc3F)c2O1 (centres unmarked) [Compound I-2, {[8-(2-Fluorophenyl)-2,3-dihydro-1,4-benzodioxin-2-yl]methyl}amine]
[1]
  Emax: 70%
  EC50: < 0.1 µM
[2]; [3]
  Ki: < 0.05 µM

## Cc1ccccc1-c1cccc2c1OC(CN)CO2 (centres unmarked) [Compound I-3, {[8-(2-Methylphenyl)-2,3-dihydro-1,4-benzodioxin-2-yl]methyl}amine]
[1]
  Emax: 60%
  EC50: < 0.1 µM
[2]; [3]
  Ki: < 0.05 µM

## NC[C@H]1COc2cccc(-c3ccccc3Cl)c2O1 [Compound I-56, 1-[(2S)-8-(2-CHLOROPHENYL)-2,3-DIHYDRO-1,4-BENZODIOXIN-2-YL]METHANAMINE]
[2]; [3]
  Ki: < 0.05 µM

## Cc1cc(Cl)ccc1-c1cc(Cl)cc2c1O[C@@H](CN)CO2 [Compound I-65, (2S)-[6-Chloro-8-(4-chloro-2-methyl-phenyl)-2,3-dihydro-benzo[1,4]dioxin-2-yl]-methylamine]
[2]; [3]
  Ki: < 0.05 µM

## COc1ccc(Cl)cc1-c1cc(Cl)cc2c1O[C@@H](CN)CO2 [Compound I-68, (2S)-[6-Chloro-8-(5-chloro-2-methoxy-phenyl)-2,3-dihydro-benzo[1,4]dioxin-2-yl]-methylamine]
[2]; [3]
  Ki: 0.05 to 0.2 µM

## Cc1ccccc1-c1c(Cl)ccc2c1O[C@@H](CN)CO2 [Compound I-72, ((2S)-7-Chloro-8-o-tolyl-2,3-dihydrobenzo[b][1,4]dioxin-2-yl)methanamine]
[2]; [3]
  Ki: < 0.05 µM

## NCC1Oc2cc(F)cc(-c3ccccc3)c2O1 (centres unmarked) [Compound I-77, 1-(6-Fluoro-4-phenyl-1,3-benzodioxol-2-yl)methanamine]
[2]; [3]
  Ki: 0.05 to 0.2 µM

## NCC1Oc2cc(F)cc(-c3cccc(Cl)c3)c2O1 (centres unmarked) [Compound I-78, 1-[4-(3-Chlorophenyl)-6-fluoro-1,3-benzodioxol-2-yl]methanamine]
[2]; [3]
  Ki: 0.05 to 0.2 µM

## NCC1Oc2cc(F)cc(-c3ccc(Cl)cc3)c2O1 (centres unmarked) [Compound I-79, 1-[4-(4-Chloro-phenyl)-6-fluoro-1,3-benzodioxol-2-yl]methanamine]
[2]; [3]
  Ki: 0.05 to 0.2 µM

## CCNCC1Oc2cc(F)cc(-c3ccccc3Cl)c2O1 (centres unmarked) [Compound I-88, N-{[4-(2-Chlorophenyl)-6-fluoro-1,3-benzodioxol-2-yl]methyl}ethanamine]
[2]; [3]
  Ki: 0.05 to 0.2 µM

## CN(C)CC1Oc2cc(F)cc(-c3ccccc3Cl)c2O1 (centres unmarked) [Compound I-89, 1-[4-(2-chlorophenyl)-6-fluoro-1,3-benzodioxol-2-yl]-N,N-dimethylmethanamine]
[2]; [3]
  Ki: 0.05 to 0.2 µM

## COc1ccccc1-c1cc(Cl)cc2c1OC(CN)O2 (centres unmarked) [Compound I-92, [6-Chloro-4-(2-methoxy-phenyl)-benzo[1,3]dioxol-2-yl]-methylamine]
[2]; [3]
  Ki: 0.05 to 0.2 µM

## NCC1Oc2cc(Cl)cc(-c3ccccc3F)c2O1 (centres unmarked) [Compound I-93, [6-Chloro-4-(2-fluoro-phenyl)-benzo[1,3]dioxol-2-yl]-methylamine]
[2]; [3]
  Ki: 0.05 to 0.2 µM

## COc1ccc(Cl)cc1-c1cc(Cl)cc2c1OC(CN)O2 (centres unmarked) [Compound I-94, [6-Chloro-4-(2-methoxy-5-chloro-phenyl)-benzo[1,3]dioxol-2-yl]-methylamine]
[2]; [3]
  Ki: > 0.2 µM

## COc1cccc(-c2cc(Cl)cc3c2OC(CN)O3)c1OC (centres unmarked) [Compound I-95, [6-Chloro-4-(2,3-dimethoxy-phenyl)-benzo[1,3]dioxol-2-yl]-methylamine]
[2]; [3]
  Ki: 0.05 to 0.2 µM

## Cc1cc(Cl)ccc1-c1cc(Cl)cc2c1OC(CN)O2 (centres unmarked) [Compound I-97, [6-Chloro-4-(4-chloro-2-methyl-phenyl)-benzo[1,3]dioxol-2-yl]-methylamine]
[2]; [3]
  Ki: 0.05 to 0.2 µM

## NCC1Oc2cc(Cl)cc(-c3cc(F)ccc3F)c2O1 (centres unmarked) [Compound I-99, [6-Chloro-4-(2,5-difluoro-phenyl)-benzo[1,3]dioxol-2-yl]-methylamine]
[2]; [3]
  Ki: 0.05 to 0.2 µM

## COc1ccc(OC)c(-c2cc(Cl)cc3c2OC(CN)O3)c1 (centres unmarked) [Compound I-100, [6-Chloro-4-(2,5-dimethoxy-phenyl)-benzo[1,3]dioxol-2-yl]-methylamine]
[2]; [3]
  Ki: > 0.2 µM

## CSc1ccc2c(c1)C(N1CCN(C)CC1)Cc1ccccc1S2 (centres unmarked) [Methiothepin, reference compound]
[2]; reference compounds, 95% confidence interval in the next column, read-out: Ki
  Ki: 0.0046 µM
